“Also recorded” adds a separate entry of the source. Like-named read-outs stand apart in the source and are kept apart here.
Assays:
[1] = test system: human breast cancer, lung cancer, hepatic cancer, colorectal cancer and ovary cancer; test: Nude mice inoculation carcinostatic rate experiments, human cancers; assay type: in vivo; conditions: for response carcinostatic rate: injected abdominally
Experimental: (§1) The mice were divided into three groups, which were given large dose (LD50×⅕), middle dose (LD50× 1/10) and small dose (LD50× 1/20) respectively. […] Beijing's institute for drug control carried out human hepatic cancer H22 nude mice inoculation carcinostatic rate experiments. […] Every group was given 0.2 ml every time per day for seven consecutive days. The mice were put to death thirty days after inoculation.

[2] = test system: cells of adenocarcinoma of breast; test: IC50 on human breast cancer cells; assay type: cell-based
human hepatic cancer H22 = conditions: for response carcinostatic rate: intravenous, daily for seven days
Experimental: as §1

[3] = test system: human hepatic cancer BEL-7402 cells; test: Ultra-microstructure of BEL-7402 cells by transmission electronic microscope; assay type: cell-based; conditions: different doses
From the text: 3. […] Then the changes of the ultra-microstructure were observed via transmission electronic microscope. […] The vacuoles and the lipid drop in the plasma increased drastically until necrotic changes, karyopyknosis, karyorrhexis, karyolysis and complete disintegration occurred (FIG. 6-FIG. 11).
e). […] The cells untreated appeared in the shape of irregular polygon, with abundant microvilli on the cell surface, plentiful organelles and different amount of glycogen granules in the plasma. […] The vacuoles and the lipid drop in the plasma increased drastically until necrotic changes, karyopyknosis, karyorrhexis, karyolysis and complete disintegration occurred.

[4] = Toxic reactions in clinical trial (five-degree classification by WHO); assay type: in vivo, human
[5] = test system: human hepatic cancer BEL-7402 cells; test: Dynamic growth of BEL-7402 cells cultured in vitro; assay type: cell-based; conditions: 10 μg/ml and 20 μg/ml, observed for eight days
Experimental: 1. […] From the third day on, the survival cells in the treated group were less than that in the control group, in which the cells grew logarithmically while those in the treated group decreased gradually. The difference among the groups became wider as time went by; moreover, the survival cells of 20 μg/ml group were less than those of 10 μg/ml group.
c). […] Then observed the dynamic growth of the cells for eight days. […] From the third day on, the cells in the control group grew logarithmically while those in the treated group decreased gradually. The difference among the groups became wider as time went by.

[6] = test system: gastric cancer BGC-823 cells; test: Determination of IC50, MTT, BGC-823 cells; assay type: cell-based
Experimental: a). Cultured gastric cancer BGC-823 cells in RPMJ-1640 nutritional fluid containing 15% fetal calf serum; then inoculated them onto 96-well culture plate, 1×10^4 cells per well; Put it in an incubator with temperature of 37° C. and 5% of CO2. […] After 72 hours of culture, added MTT fluid. An hour later, DMSO was added for coloration. OD value was assayed with enzyme labeling instrument. Finally, calculated the response rate of the drug in each concentration and determined IC50 based on the coordinate process.

[7] = Antitumor effects (test not specified)
[8] = test system: human hepatic cancer cells BEL-7402; test: IC50 on human hepatic cancer cells BEL-7402; assay type: cell-based
cancer = test: Typical cases treated by oral capsules and injections; assay type: in vivo, human
From the text: 1. The oral capsules were composed of bicycloplatin and adjuvant.
2. […] A course of treatment took 6 times (12 ampoules). The second course of treatment began after an interval of two weeks. After three consecutive courses of treatment, general examination was taken.

melanoma cells = test: Selective killing experiment, melanoma cells; assay type: cell-based, human; conditions: within a certain range of doses
rats = test: Long-term toxicity experiments in rats
From the text: Thus we can not only know the target organs of toxic reactions and the reversibility of the damages through observing the main body reactions and degrees of injuries after three months of administration, but also determine nontoxic dose to provide reference for therapeutic safe dose.
c). […] Weighed the rats once a week and adjusted doses according to weight changes. Stopped administration after 12 weeks and continued observing for 2 weeks.

[9] = test system: human oral cancer KB cells; test: Determination of IC50, MTT, KB cells; assay type: cell-based; conditions: for Response rate: KB
lung cancer cells = test: Selective killing experiment, lung cancer cells; assay type: cell-based, human; conditions: within a certain range of doses
Kunming mice = test: Acute toxicity, IP once a day for ten days, LD50 by Bliss method; assay type: in vivo
From the text: a). Divided 50 Kunming mice randomly into 5 groups, each having 10 mice, weighing from 18 g to 22 g and being half male and half female.

carnuncle S180 = test: Carcinostatic rates against carnuncle S180 in mice; assay type: in vivo, Kunming mice; conditions: for Mice After Injection: 10 mice before injection
hepatic cancer H22 cells = test: Carcinostatic rates on hepatic cancer H22 in Kunming mice; assay type: in vivo; conditions: for Tumor Weight: daily for seven days; for Mice After Injection: 10 mice before injection
Experimental: a). Divided 40 Kunming mice with weight ranging from 21 to 22 g, half male and half female randomly into 4 groups. Every group had 10 mice. Inoculated every mouse with 0.2 ml hepatic cancer H22 cells subcutaneously in right abdomen. […] The control group was given normal saline IP. The mice were put to death the day after withdrawal. Weighed the bodies and the tumor, calculated the carcinostatic rates.

[10] = Effectiveness on oral administration; assay type: in vivo
Solubility in water = assay type: physicochemical
nude mice = test: Acute toxicity dose limiting experiments (LD50)
Experimental: The LD50 of the pharmaceutical composition of the invention is tested as follows, for example: […]

Stability in water = assay type: physicochemical; conditions: after dissolved in water
[11] = 12th week of administration and 2 weeks after withdrawal
[12] = rats, oral LD50/10 once a day for 90 days
[13] = after two times of administration of the smallest dose based on LD50

double 1,1-cyclobutane dicarboxylic acid diaminoplatin complex [bicycloplatin]
response carcinostatic rate ([1]; large dose (LD50×⅕)): 90% | response carcinostatic rate ([1]; middle dose (LD50×1/10)): 95% | response carcinostatic rate ([1]; small dose (LD50×1/20)): 70% | carcinostatic rates ([1]; same doses given by stomach lavage, compared with abdominal injection): a little lower carcinostatic rates | IC50 [2]: 2.8 µg/mL | death of nude mice (human hepatic cancer H22; every group containing ten mice): No death of nude mice was observed | response carcinostatic rate (human hepatic cancer H22; large dose (LD50×⅕)): 50.85% | response carcinostatic rate (human hepatic cancer H22; middle dose (LD50×1/10)): 57.40% | response carcinostatic rate (human hepatic cancer H22; small dose (LD50×1/20)): 35.20% | cell death [3]: Five days later cell death occurred | changes of the ultra-microstructure [3]: degenerative changes of different degrees with the increase of the concentration of drug; also recorded: degenerative changes of different degrees with the increase of the concentration of bicycloplatin | adverse reactions [4]: no adverse reactions occur | inhibition of growth of BEL-7402 cells [5]: could inhibit the growth of human hepatic cancer BEL-7402 cells cultured in vitro dependent on time and dose; also recorded: potent antitumor effects on human hepatic cancer BEL-7402 cells dependent on doses | Response rate ([6]; BGC-823, 0.78 μg/ml): 6.0% | Response rate ([6]; BGC-823, 1.56 μg/ml): 19.0% | Response rate ([6]; BGC-823, 3.13 μg/ml): 21.0% | Response rate ([6]; BGC-823, 6.25 μg/ml): 33.0% | Response rate ([6]; BGC-823, 12.5 μg/ml): 51.0% | Response rate ([6]; BGC-823, 25 μg/ml): 60.0% | Response rate ([6]; BGC-823, 50 μg/ml): 74.6% | Response rate ([6]; BGC-823, 100 μg/ml): 80.3% | Response rate ([6]; BGC-823, 200 μg/ml): 83.3% | IC50 ([6]; BGC-823, 72 hours): IC50 = 14.80 ± 1.34 μg/ml | antitumor spectrum [7]: Broad Antitumor Spectrum | IC50 [8]: 1.3 µg/mL | tumor (cancer; Patient Li, end of the 2nd course of treatment): basically disappeared | lung metastatic carcinoma (cancer; Patient Ma, hepatic cancer, capsules and injections, after two months): disappeared | outcome (cancer; Patient Meng, adenocarcinoma of lung at late stage, injections and oral capsules): cured in general | final outcome (cancer; Patient Wang, late hepatic cancer): the tumor disappeared | outcome (cancer; Patient Yang, melanoma, metastasis to liver and lung, 36 ampoules): The metastatic tumors had been cured and the melanoma had necrosed | three masses with size of 2×2 cm^2 (cancer; Patient Zhu, cystic cancer, oral capsules): disappeared completely | metastasis to liver (cancer; foreign patient, intestinal cancer, 36 ampoules and 36 oral capsules): disappeared | melanoma cells (melanophore) killed (melanoma cells): 80% | BUN, GPT, GOT versus control group (rats; [11]): no significant difference | WBC, RBC, hemoglobin, platelet (rats; [11]): all within normal ranges | histological examination, livers and spleens (rats; after observation): different degrees of hyperemia and edema | histological examination, other visceras (rats; after observation): No organic changes caused by the drug are found | other visceral coefficients (rats; after observation): all normal | weights of the livers (rats; after observation, versus control group): slightly heavier than that of the control group | diet, activity and state of the rats (rats; [12]): no obvious abnormality | mortality (rats; [12]): No mortally occurred | injuries of the drug to viscera (rats; rats, three months of administration): dose-dependent | damage and recovery (rats; small dose): does a little damage to the group and the group can recover fully | reversibility of injuries (rats; therapeutic dose): alleviated after one month of withdrawal | IC50 ([9]; KB cells, 72 hours): IC50 = 13.24 ± 1.33 μg/ml | Response rate ([9]; 0.78 μg/ml): 5.9% | Response rate ([9]; 1.56 μg/ml): 14.8% | Response rate ([9]; 3.13 μg/ml): 28.2% | Response rate ([9]; 6.25 μg/ml): 26.2% | Response rate ([9]; 12.5 μg/ml): 36.7% | Response rate ([9]; 25 μg/ml): 66.6% | Response rate ([9]; 50 μg/ml): 77.1% | Response rate ([9]; 100 μg/ml): 93.0% | Response rate ([9]; 200 μg/ml): 93.3% | lung cancer cells killed (lung cancer cells): 50% | abnormal manifestations (Kunming mice; IP 96-400 mg/kg): did not occur except local irritation of the high concentration | time of death (Kunming mice; IP 96-400 mg/kg): on the 3rd to 7th day | LD50±SE (Kunming mice; Kunming mice, IP once a day for ten consecutive days, Bliss method): 210.5 ± 1.14 mg/kg | LD50 compared with cisplatin and carboplatin (Kunming mice; determined under the same condition): significantly higher than the LD50 of cisplatin and carboplatin | antitumor effects on S180 (carnuncle S180; 10-30 mg/kg): potent antitumor effects on S180 dependent on doses | Body Weight After Injection (carnuncle S180; S180, 10 mg/kg): 25.8 g | Response rate (carnuncle S180; S180, 10 mg/kg): 39.7% | Tumor Weight (carnuncle S180; S180, 10 mg/kg): 1.03 ± 0.30 g | Mice After Injection (carnuncle S180; S180, 10 mg/kg): 10 | Body Weight After Injection (carnuncle S180; S180, 20 mg/kg): 18.1 g | Response rate (carnuncle S180; S180, 20 mg/kg): 68.0% | Tumor Weight (carnuncle S180; S180, 20 mg/kg): 0.54 ± 0.16 g | Mice After Injection (carnuncle S180; S180, 20 mg/kg): 10 | Body Weight After Injection (carnuncle S180; S180, 30 mg/kg): 21.5 g | Response rate (carnuncle S180; S180, 30 mg/kg): 71.0% | Tumor Weight (carnuncle S180; S180, 30 mg/kg): 0.49 ± 0.16 g | Mice After Injection (carnuncle S180; S180, 30 mg/kg): 10 | Body Weight After Injection (hepatic cancer H22 cells; H22, 10 mg/kg): 27.9 g | Response rate (hepatic cancer H22 cells; H22, 10 mg/kg): 40.4% | Tumor Weight (hepatic cancer H22 cells; H22, 10 mg/kg abdominally): 0.95 ± 0.29 g | Mice After Injection (hepatic cancer H22 cells; H22, 10 mg/kg): 10 | Body Weight After Injection (hepatic cancer H22 cells; H22, 20 mg/kg): 24.4 g | Response rate (hepatic cancer H22 cells; H22, 20 mg/kg): 67.0% | Tumor Weight (hepatic cancer H22 cells; H22, 20 mg/kg abdominally): 0.53 ± 0.26 g | Mice After Injection (hepatic cancer H22 cells; H22, 20 mg/kg): 10 | Body Weight After Injection (hepatic cancer H22 cells; H22, 30 mg/kg): 22.4 g | Response rate (hepatic cancer H22 cells; H22, 30 mg/kg): 78.6% | Tumor Weight (hepatic cancer H22 cells; H22, 30 mg/kg abdominally): 0.34 ± 0.09 g | Mice After Injection (hepatic cancer H22 cells; H22, 30 mg/kg): 10 | mortality (hepatic cancer H22 cells; H22, 10-30 mg/kg): no mortality occurs | weight gain of the treated groups (hepatic cancer H22 cells; H22, 10-30 mg/kg, versus control group): less than that of the control group | effectiveness on oral administration [10]: significant therapeutic effects

Double 1,1-Cyclopropane Dicarboxylic Acid Diaminoplatin Complex
antitumor effects compared with bicycloplatin [7]: superior | solubility in water compared with bicycloplatin (Solubility in water): less soluble in water | LD50 (nude mice; injected): 180 mg/kg

N.N.O=C([O-])C1(C(=O)[O-])CCC1.[Pt+2] [Carboplatin, carboplatin, reference compound]
stability in water (Stability in water): lose effectiveness in one day | IC50 [2]: 9.3 µg/mL | IC50 [8]: 8.45 µg/mL | Solubility in water (Solubility in water): 1.5 g/100 ml | LD50 abdominal administration (nude mice; administered abdominally): 130 mg/kg | effectiveness on oral administration [10]: ineffective

N.N.[Cl][Pt][Cl] [Cisplatin, cis-dichlorodiaminoplatin]
stability in water (Stability in water): lose effectiveness in one day | effectiveness on oral administration [10]: ineffective

O=P1(N(CCCl)CCCl)NCCCO1 (stereo not shown) [cyclophosphamide, reference compound]
inhibition rate (human hepatic cancer H22; [13]): 73.15% | state of the mice (human hepatic cancer H22; [13]): most of the mice were near death
